Experimental data taken from ChEMBL document CHEMBL5352434, “Design, synthesis, and biological evaluation of ocotillol derivatives fused with 2-aminothiazole via A-ring as modulators of P-glycoprotein-mediated multidrug resistance” (Eur J Med Chem, 2022).
The source made the active and inactive calls. No cut-off for these calls is given here.

Columns and labels:
[1] = Cytotoxicity against multi-drug resistance human KBV cells assessed as cell survival incubated for 72 hrs by MTT assay; format: functional, cell-based
[2] = Cytotoxicity against multi-drug resistance human KBV cells assessed as cell survival in presence of Tariquidar incubated for 72 hrs by MTT assay; format: functional, cell-based
[3] = Cytotoxicity against multi-drug resistance human KBV cells assessed as cell survival in presence of 10 uM (20S,24R)-Epoxy-3-beta-N-glycyl-[3,2-b]thiazole-dammarane-12-beta,25-diol incubated for 72 hrs by MTT assay; format: functional, cell-based
[4] = Cytotoxicity against multi-drug resistance human KBV cells assessed as cell survival in presence of 5 uM (20S,24R)-Epoxy-3-beta-N-glycyl-[3,2-b]thiazole-dammarane-12-beta,25-diol incubated for 72 hrs by MTT assay; format: functional, cell-based
[5] = Cytotoxicity against multi-drug resistance human KBV cells assessed as cell survival in presence of Verapamil incubated for 72 hrs by MTT assay; format: functional, cell-based
[6] = Cytotoxicity against multi-drug resistance human KBV cells assessed as cell survival rate at 10 uM in presence of 100 nM Paclitaxel incubated for 72 hrs by MTT assay; format: functional; settings: read-out: Survival
[7] = Cytotoxicity against multi-drug resistance human KBV cells assessed as cell survival rate at 5 uM in presence of 100 nM Paclitaxel incubated for 72 hrs by MTT assay; format: functional; settings: read-out: Survival
[8] = Cytotoxicity against multi-drug resistance human KBV cells assessed as cell survival rate at 10 uM incubated for 72 hrs by MTT assay; format: functional; settings: read-out: Survival
[9] = Cytotoxicity against multi-drug resistance human KBV cells assessed as cell survival rate at 5 uM incubated for 72 hrs by MTT assay; format: functional; settings: read-out: Survival
KBV = experiment: Antitumor activity against human MDR KBV cells xenografted in BALB/c nude mouse assessed as change in tumor volume at 30 mg/kg every 3 days for 18 days; format: functional, organism-based; settings: time 18.0 day
[10] = Toxicity in BALB/c nude mouse xenografted with human MDR KBV cells assessed as change in body weight administered at 30 mg/kg every 3 days for 18 days; format: organism-based; settings: in vivo, 432 h, time 18 day

Row | SMILES | IC50 [1] [nM] | IC50 [2] [nM] | IC50 [3] [nM] | IC50 [4] [nM] | IC50 [5] [nM] | viability at 10 µM [6] [%] | viability at 5 µM [7] [%] | viability at 10 µM [8] [%] | viability at 5 µM [9] [%] | Activity (KBV) | Activity [10]
1 | CC[C@]1(O)C[C@H]2CN(CCc3c([nH]c4ccccc34)[C@@](C(=O)OC)(c3cc4c(cc3OC)N(C=O)[C@H]3[C@@](O)(C(=O)OC)[C@H](OC(C)=O)[C@]5(CC)C=CCN6CC[C@]43[C@@H]65)C2)C1 [VINCRISTINE] | 559 | 1.5 | 1.18 | 13.7 | 1.63 |  |  |  |  |  | 
2 | CC(C)(O)[C@@H]1CC[C@@](C)([C@H]2CC[C@]3(C)[C@@H]2[C@H](O)C[C@@H]2[C@@]4(C)Cc5sc(NC(=O)CCCCCCCN)nc5C(C)(C)[C@@H]4CC[C@]23C)O1 |  |  |  |  |  | 17.3 | 29 | 16.5 | 44.7 |  | 
3 | CC(C)(O)[C@@H]1CC[C@@](C)([C@H]2CC[C@]3(C)[C@@H]2[C@H](O)C[C@@H]2[C@@]4(C)Cc5sc(NC(=O)CCCCCCCCCCN)nc5C(C)(C)[C@@H]4CC[C@]23C)O1 |  |  |  |  |  | 16.4 | 18.1 | 17.5 | 18.4 |  | 
4 | CC(C)(O)[C@@H]1CC[C@@](C)([C@H]2CC[C@]3(C)[C@@H]2[C@H](O)C[C@@H]2[C@@]4(C)CC[C@H](O)C(C)(C)[C@@H]4CC[C@]23C)O1 |  |  |  |  |  | 86.5 |  |  |  |  | 
5 | CC(C)(O)[C@@H]1CC[C@@](C)([C@H]2CC[C@]3(C)[C@@H]2[C@H](O)C[C@@H]2[C@@]4(C)Cc5sc(NC(=O)[C@H](N)Cc6ccccc6)nc5C(C)(C)[C@@H]4CC[C@]23C)O1 |  |  |  |  |  | 50.2 | 101 | 96 | 103 |  | 
6 | CC(C)(O)[C@@H]1CC[C@@](C)([C@H]2CC[C@]3(C)[C@@H]2[C@H](O)C[C@@H]2[C@@]4(C)Cc5sc(NC(=O)CN)nc5C(C)(C)[C@@H]4CC[C@]23C)O1 |  |  |  |  |  | 30.2 | 59.4 | 65.4 | 94.6 |  | 
7 | O=C1c2c(O)ccc(O)c2C(=O)c2c(NCCNCCO)ccc(NCCNCCO)c21 [MITOXANTRONE] | 299 | 90 | 61.9 | 165 | 97.5 |  |  |  |  |  | 
8 | CC(C)C[C@H](N)C(=O)Nc1nc2c(s1)C[C@]1(C)[C@H]3C[C@@H](O)[C@H]4[C@@H]([C@]5(C)CC[C@H](C(C)(C)O)O5)CC[C@@]4(C)[C@]3(C)CC[C@H]1C2(C)C |  |  |  |  |  | 32.6 | 90.4 | 89 | 92.8 |  | 
9 | CC(C)(O)[C@@H]1CC[C@@](C)([C@H]2CC[C@]3(C)[C@@H]2[C@H](O)C[C@@H]2[C@@]4(C)Cc5sc(NC(=O)[C@H]6CCCN6)nc5C(C)(C)[C@@H]4CC[C@]23C)O1 |  |  |  |  |  | 48.1 | 69.8 | 93.3 | 94.6 |  | 
10 | CC(C)(O)[C@H]1CC[C@@](C)([C@H]2CC[C@]3(C)[C@@H]2[C@H](O)C[C@@H]2[C@@]4(C)Cc5sc(NC(=O)CCCCCCCCCCN)nc5C(C)(C)[C@@H]4CC[C@]23C)O1 |  |  |  |  |  | 11.4 | 17.5 | 12.4 | 43.6 |  | 
11 | CC(C)(O)[C@H]1CC[C@@](C)([C@H]2CC[C@]3(C)[C@H]2[C@H](O)C[C@@H]2[C@@]4(C)Cc5sc(NC(=O)[C@H](N)Cc6c[nH]c7ccccc67)nc5C(C)(C)[C@@H]4CC[C@]23C)O1 |  |  |  |  |  | 55.6 | 69.5 | 93.9 | 91.9 |  | 
12 | C[C@H](N)C(=O)Nc1nc2c(s1)C[C@]1(C)[C@H]3C[C@@H](O)[C@@H]4[C@@H]([C@]5(C)CC[C@@H](C(C)(C)O)O5)CC[C@@]4(C)[C@]3(C)CC[C@H]1C2(C)C |  |  |  |  |  | 46 | 77.4 | 97.4 | 95.7 |  | 
13 | CC(C)C[C@H](N)C(=O)Nc1nc2c(s1)C[C@]1(C)[C@H]3C[C@@H](O)[C@@H]4[C@@H]([C@]5(C)CC[C@@H](C(C)(C)O)O5)CC[C@@]4(C)[C@]3(C)CC[C@H]1C2(C)C |  |  |  |  |  | 50.9 | 71.8 | 98.1 | 89.3 |  | 
14 | CC(C)(O)[C@@H]1CC[C@@](C)([C@H]2CC[C@]3(C)[C@@H]2[C@H](O)C[C@@H]2[C@@]4(C)Cc5sc(NC(=O)CCCN)nc5C(C)(C)[C@@H]4CC[C@]23C)O1 |  |  |  |  |  | 57 | 90 | 67.2 | 106 |  | 
15 | CC(C)(O)[C@H]1CC[C@@](C)([C@H]2CC[C@]3(C)[C@@H]2[C@H](O)C[C@@H]2[C@@]4(C)Cc5sc(NC(=O)[C@H]6CCCN6)nc5C(C)(C)[C@@H]4CC[C@]23C)O1 |  |  |  |  |  | 22.9 | 39.5 | 59.5 | 84.1 |  | 
16 | CC(C)[C@H](N)C(=O)Nc1nc2c(s1)C[C@]1(C)[C@H]3C[C@@H](O)[C@H]4[C@@H]([C@]5(C)CC[C@H](C(C)(C)O)O5)CC[C@@]4(C)[C@]3(C)CC[C@H]1C2(C)C |  |  |  |  |  | 54.2 | 91.6 | 92.7 | 95.2 |  | 
17 | CC(C)(O)[C@H]1CC[C@@](C)([C@H]2CC[C@]3(C)[C@@H]2[C@H](O)C[C@@H]2[C@@]4(C)Cc5sc(NC(=O)CCCCCN)nc5C(C)(C)[C@@H]4CC[C@]23C)O1 |  |  |  |  |  | 12.5 | 21.6 | 30.3 | 35.3 |  | 
18 | CC(C)(O)[C@H]1CC[C@@](C)([C@H]2CC[C@]3(C)[C@@H]2[C@H](O)C[C@@H]2[C@@]4(C)Cc5sc(NC(=O)CCCN)nc5C(C)(C)[C@@H]4CC[C@]23C)O1 |  |  |  |  |  | 12.6 | 19.8 | 14.9 | 34.7 |  | 
19 | CC(C)(O)[C@H]1CC[C@@](C)([C@H]2CC[C@]3(C)[C@@H]2[C@H](O)C[C@@H]2[C@@]4(C)Cc5sc(NC(=O)[C@H](N)Cc6ccccc6)nc5C(C)(C)[C@@H]4CC[C@]23C)O1 |  |  |  |  |  | 39.1 | 54.1 | 101 | 100 |  | 
20 | C[C@H](N)C(=O)Nc1nc2c(s1)C[C@]1(C)[C@H]3C[C@@H](O)[C@@H]4[C@@H]([C@]5(C)CC[C@H](C(C)(C)O)O5)CC[C@@]4(C)[C@]3(C)CC[C@H]1C2(C)C |  |  |  |  |  | 41 | 67.3 | 103 | 91.4 |  | 
21 | CC(C)(O)[C@H]1CC[C@@](C)([C@H]2CC[C@]3(C)[C@@H]2[C@H](O)C[C@@H]2[C@@]4(C)Cc5sc(NC(=O)CCCCCCCN)nc5C(C)(C)[C@@H]4CC[C@]23C)O1 |  |  |  |  |  | 15 | 23.6 | 23.5 | 38.3 |  | 
22 | CC(C)(O)[C@@H]1CC[C@@](C)([C@H]2CC[C@]3(C)[C@@H]2[C@H](O)C[C@@H]2[C@@]4(C)Cc5sc(NC(=O)CCCCCN)nc5C(C)(C)[C@@H]4CC[C@]23C)O1 |  |  |  |  |  | 67.2 | 72.2 | 72.2 | 93.5 |  | 
23 | CC(C)[C@H](N)C(=O)Nc1nc2c(s1)C[C@]1(C)[C@H]3C[C@@H](O)[C@H]4[C@@H]([C@]5(C)CC[C@@H](C(C)(C)O)O5)CC[C@@]4(C)[C@]3(C)CC[C@@]1(O)C2(C)C |  |  |  |  |  | 90.7 | 98.6 | 100 | 92.5 |  | 
24 | CC(C)(O)[C@H]1CC[C@@](C)([C@H]2CC[C@]3(C)[C@@H]2[C@H](O)C[C@@H]2[C@@]4(C)CC[C@H](O)C(C)(C)[C@@H]4CC[C@]23C)O1 |  |  |  |  |  | 86.6 |  |  |  |  | 
25 | CC(C)(O)[C@@H]1CC[C@@](C)([C@H]2CC[C@]3(C)[C@@H]2[C@H](O)C[C@@H]2[C@@]4(C)Cc5sc(N)nc5C(C)(C)[C@@H]4CC[C@]23C)O1 |  |  |  |  |  | 48.6 | 68.7 | 80.6 | 112 |  | 
26 | CC(C)(O)[C@@H]1CC[C@@](C)([C@H]2CC[C@]3(C)[C@@H]2[C@H](O)C[C@@H]2[C@@]4(C)Cc5sc(NC(=O)[C@H](N)Cc6c[nH]c7ccccc67)nc5C(C)(C)[C@@H]4CC[C@]23C)O1 |  |  |  |  |  | 76.3 | 94.4 | 95.7 | 92.8 |  | 
27 | CC(=O)O[C@H]1C(=O)[C@@]2(C)[C@H]([C@H](OC(=O)c3ccccc3)[C@]3(O)C[C@H](OC(=O)[C@H](O)[C@@H](NC(=O)c4ccccc4)c4ccccc4)C(C)=C1C3(C)C)[C@]1(OC(C)=O)CO[C@@H]1C[C@@H]2O [PACLITAXEL] | 788 | 2.16 | 2.17 | 58.5 | 9.66 | 99.3 |  |  |  | inactive | Non-Toxic
28 | CC(C)(O)[C@H]1CC[C@@](C)([C@H]2CC[C@]3(C)[C@@H]2[C@H](O)C[C@@H]2[C@@]4(C)Cc5sc(N)nc5C(C)(C)[C@@H]4CC[C@]23C)O1 |  |  |  |  |  | 18.2 | 33.7 | 73.9 | 104 |  | 
